This is an account of results in publication PMC7269513 (Antimicrobial Agents and Chemotherapy, 2020).

The target in series [1] is T1, NDM-1 (Klebsiella pneumoniae, UniProt C7C422). Kind of series: biochemical.
The target in series [2] is T2, VIM-1 (Pseudomonas aeruginosa, UniProt A0A0F7KYQ8). Put plainly: IC50 of beta-lactamase inhibition (nitrocefin hydrolysis). In kind it is biochemical. The settings on record: IC50 (nM) of drug.
For the next series, the target named is P99 (Enterobacter cloacae, UniProt P05364). The description is as above. Type of series: biochemical. As for the experimental part: (§1) […]; Initial rates of reaction were calculated and exported to Prism software to calculate IC50 values using the “dose-response—inhibition, variable slope (four parameters)” equation. Ki values were calculated by the method of Waley ([31]). This method was previously used to calculate Ki values for boronic fast-on–fast-off BLIs.

The target in the next series is CTX-M-15 (Escherichia coli, UniProt Q9EXV5). Described as above. The settings on record: read-out: IC50 (nM) of drug. In kind it is biochemical. How it is done: as §1
In series [3] the target is T3, IMP-1 (Serratia marcescens, UniProt P52699). Kind of series: IC50 of beta-lactamase inhibition (imipenem hydrolysis). In kind it is biochemical.
Series [4] concerns the target T4, SHV-12 (Klebsiella pneumoniae, UniProt P0AD64, E235K/G234S/L31Q). Put plainly: IC50 of beta-lactamase inhibition (nitrocefin hydrolysis). The settings on record: read-out: IC50 (nM) of drug. Type of series: biochemical.
In another series the target is CTX-M-14 (Escherichia coli, UniProt Q9L5C7). The description is as above. Particulars: read-out: IC50 (nM) of drug. In kind it is biochemical.
Series [5] concerns the target T5, OXA-48 (Klebsiella pneumoniae, UniProt Q6XEC0).
In series [6] the target is T1, NDM-1. Type of series: biochemical.
The next series addresses OXA-58 (Acinetobacter baumannii, UniProt Q2TR58).
The next series concerns the target IMP-26 (Pseudomonas aeruginosa, UniProt D0V558). Type of series: biochemical. The settings on record: hydrolysis by IMP-26.
Another series addresses OXA-24 (Acinetobacter baumannii, UniProt Q8RLA6).
The target of series [7] is T3, IMP-1.
Series [8] has as its target T2, VIM-1.
The target in series [9] is T6, KPC-2 (Klebsiella pneumoniae, UniProt Q9F663). In kind it is biochemical.
For series [10], the target named is T7, OXA-23 (Acinetobacter baumannii, UniProt Q9L4P2).
A further series concerns the target BKC-1 (Klebsiella pneumoniae, UniProt A0A0F6QEY8). Put plainly: Km and kcat of nitrocefin or imipenem hydrolysis. In kind it is biochemical. The settings on record: hydrolysis by BKC-1.
A further series has as its target KPC-3 (Klebsiella pneumoniae, UniProt Q9F663, H272Y). Type of series: biochemical. Particulars: hydrolysis by KPC-3.
The target of a further series is SME-2 (Serratia marcescens, UniProt P52682, V207Q). In kind it is biochemical.
A further series deals with TEM-43 (Escherichia coli, UniProt P62593, E102K/M180T/R162H, species not given). Type of series: biochemical. Particulars: hydrolysis by TEM-43.
The target in a further series is TEM-10 (Escherichia coli, UniProt P62593, E237K/R162S). Particulars: hydrolysis by TEM-10.
Another series addresses FRI-1 (Enterobacter cloacae, UniProt A0A0M5L4T8). Kind of series: Km and kcat of nitrocefin or imipenem hydrolysis. In kind it is biochemical. The settings on record: hydrolysis by FRI-1.
In series [11] the target is T4, SHV-12. Type of series: biochemical.
Series [12] concerns the target T5, OXA-48. Put plainly: IC50 of beta-lactamase inhibition (nitrocefin hydrolysis). Type of series: biochemical, Enterobacteriaceae. Particulars: read-out: IC50 (nM) of drug.
Series [13] concerns the target T7, OXA-23. Described as above. In kind it is biochemical. The settings on record: read-out: IC50 (nM) of drug.
In series [14] the target is T6, KPC-2. The description is as above. In kind it is biochemical. The settings on record: KPC-2, class A; substrate nitrocefin; 10 min preincubation at 37°C; read-out: IC50 (nM) of drug.
For series [15], the system named is O=C(Cc1cccs1)N[C@@H]1C(=O)N2C(C(=O)O)=C(/C=C/c3ccc([N+](=O)[O-])cc3[N+](=O)[O-])CS[C@H]12. Kind of series: purified protein, by the assay type.
Where [16] appears, read: P99, class C, substrate nitrocefin, 10 min preincubation at 37°C, read-out: IC50 (nM) of drug.

In general, IC50 refers to the concentration that gives 50% inhibition. In general, Km refers to the substrate concentration at which the rate is half of its maximum. One may read the kcat as the number of substrate molecules converted per active site and unit of time at saturation. Broadly, the kcat/Km is the second-order rate constant that governs catalysis at low substrate concentration.

Several values for one entry are separate records, joined by “and”; a condition that tells them apart may be missing. Equal entries are not always repeated. Where two headings read alike, the source gives them in different places.

As for `NC(=O)[C@@H]1CC[C@@H]2CN1C(=O)N2OS(=O)(=O)O` [Avibactam, avibactam], the 50% inhibitory concentration (IC50) on NDM-1 [1] is greater than 160000 nM; on VIM-1 [2] it was greater than 160000 nM; on P99 (IC50 (nM) of drug) it was 26 ± 7 nM; at CTX-M-15 it was 0.56 ± 0.25 nM; against IMP-1 [3] it was greater than 160000 nM; on SHV-12 [4] it was 0.61 ± 0.19 nM. The IC50 on CTX-M-14 was 1.4 ± 0.4 nM.

As to `C[C@@H](O)[C@H]1C(=O)N2C(C(=O)O)=C(SCCN=CN)C[C@H]12` [Imipenem, imipenem], the Michaelis constant (Km) at OXA-48 [5] amounted to 1.5 µM; at NDM-1 [6], 206 µM; on OXA-58, 1.3 µM; at OXA-24, 1.2 µM; on IMP-1 [7], 66 µM; on VIM-1 [8], 13 µM. The figures for the Km on KPC-2 [9] and at OXA-23 [10] were 70 µM and 6.6 µM, respectively. Further, the kcat on OXA-48 [5] stood at 1.7 s⁻¹; on NDM-1 [6] it was 96 s⁻¹; at OXA-58, 0.66 s⁻¹; on IMP-26 it was 35 s⁻¹; at OXA-24, 1.9 s⁻¹; at VIM-1 [8], 15 s⁻¹. The kcat was determined as 39 s⁻¹ on KPC-2 [9] and 0.7 s⁻¹ at OXA-23 [10].

Take `O=C(Cc1cccs1)N[C@@H]1C(=O)N2C(C(=O)O)=C(/C=C/c3ccc([N+](=O)[O-])cc3[N+](=O)[O-])CS[C@H]12` [Nitrocefin, nitrocefin]: the Km at NDM-1 [6] came to 1.6 µM; on SME-2, 59 µM; on KPC-2 [9], 49 µM; at SHV-12 [11], 5.5 µM. Besides, the turnover number (kcat) at NDM-1 [6] (hydrolysis by NDM-1) worked out at 27 s⁻¹; on BKC-1 it was 721 s⁻¹; at KPC-3, 182 s⁻¹; at IMP-26, 325 s⁻¹; on SME-2 (hydrolysis by SME-2) it was 352 s⁻¹; on TEM-43 it was 175 s⁻¹. The turnover number (kcat) at TEM-10 was 18 s⁻¹; at KPC-2 [9] (hydrolysis by KPC-2) it was 206 s⁻¹; on FRI-1, 176 s⁻¹; on SHV-12 [11] (hydrolysis by SHV-12) it was 73 s⁻¹.

For `O=C(NC1CCNCC1)[C@@H]1CC[C@@H]2CN1C(=O)N2OS(=O)(=O)O` [Relebactam, relebactam], the IC50 at NDM-1 [1] is greater than 160000 nM; on VIM-1 [2], greater than 160000 nM; on P99 (setting [16]) it was 36 ± 4 nM; against IMP-1 [3] it was greater than 160000 nM; at SHV-12 [4], 330 ± 50 nM; at CTX-M-14, 34 ± 10 nM.

On to `O=C(O)C[C@@H]1CC[C@H](NC(=O)Cc2cccs2)B(O)O1` [Vaborbactam, vaborbactam], for which the 50% inhibitory concentration (IC50) is 6900 nM on OXA-48 [12]; greater than 160000 nM on NDM-1 [1]; 120000 nM on OXA-23 [13]; greater than 160000 nM against VIM-1 [2]; 110 ± 30 nM at KPC-2 [14]; 88 ± 38 nM at P99 (setting [16]). Moreover, the half-maximal inhibitory concentration (IC50) on CTX-M-15 is 92 ± 13 nM; against IMP-1 [3], greater than 160000 nM; at SHV-12 [4], 56 ± 11 nM; on CTX-M-14, 110 ± 40 nM.

For the compound (Acinetobacter baumannii), in series [15], the Michaelis constant (Km) was 62 µM and 28 µM and 34 µM; the catalytic constant (kcat) is 357 s⁻¹ and 208 s⁻¹ and 518 s⁻¹; the kcat/Km was 5.8e+06 M⁻¹ s⁻¹ and 7.6e+06 M⁻¹ s⁻¹ and 1.5e+07 M⁻¹ s⁻¹.

Take (Enterobacter cloacae): in series [15], the Km is 100 µM, the kcat is 479 s⁻¹ and the kcat/Km was 4.8e+06 M⁻¹ s⁻¹.

With (Escherichia coli), in series [15], the Km was 22 µM and 24 µM; the catalytic constant (kcat) was 334 s⁻¹ and 341 s⁻¹; the kcat/Km came to 1.5e+07 M⁻¹ s⁻¹.

Take (Klebsiella pneumoniae): in [15], the Km is listed as 29 µM, the catalytic constant (kcat) worked out at 406 s⁻¹ and the catalytic efficiency (kcat/Km) worked out at 1.4e+07 M⁻¹ s⁻¹.

Consider (Pseudomonas aeruginosa PAO1), for which, in series [15], the Km came out at 55 µM, the turnover number (kcat) amounted to 133 s⁻¹ and the catalytic efficiency (kcat/Km) stood at 2.4e+06 M⁻¹ s⁻¹.

Take (Serratia marcescens): in series [15], the Km was determined as 26 µM, the turnover number (kcat) came out at 229 s⁻¹ and the specificity constant (kcat/Km) was determined as 8.9e+06 M⁻¹ s⁻¹.
